≈ marks a conversion by molar mass, not a printed value. Like-named read-outs stand apart in the source and are kept apart here.

In one series the test system is mosquito species larvae. The settings on record: cited from earlier work.
Series [1] relates to third-instar larvae of insecticide-susceptible Aedes aegypti. Description: contact mortality bioassay, 24 h exposure. Format: in vivo. The settings on record: 24 h exposure; for LC50: Aedes aegypti, 24 h. The protocol: (§1) A contact mortality bioassay[25] was used to evaluate the toxicity of all compounds against third-instar larvae of the four mosquito species. Each test compound in methanol was suspended in DW with Triton X-100 (20 µL/L). Groups of 20 mosquito larvae were separately placed into paper cups (270 mL) containing each compound solution (250 mL). […] Negative controls consisted of a methanol–Triton X-100 solution in DW.
(§2) Treated and control (methanol–Triton X-100 solution only) larvae were maintained under the same conditions as those used for colony maintenance without providing food. Larval mortalities were determined 24 h post-treatment. […] All treatments were performed three times using 20 larvae per replicate.
(§3) The concentration of the test compounds required to produce 50% AChE inhibitory activity (IC50) was determined using the SAS 9.13 program (Cary: SAS Institute; 2014). Concentration-mortality data were subjected to probit analysis using the SAS 9.13 program. […] Statistical analyses were performed using the SAS 9.13 program. Multiple linear regression and correlation analysis were performed using the SPSS 24 program (Armonk: IBM Corp.; 2016).

Series [2] deals with third-instar larvae of insecticide-susceptible Culex pipiens pallens. Description: contact mortality bioassay, 24 h exposure. Format: in vivo. The settings on record: 24 h exposure; for LC50: Culex pipiens, 24 h. The protocol: as §1, §2, §3
For series [3], the target named is acetylcholinesterase (AChE) from third-instar Ae. aegypti larvae (Aedes aegypti, UniProt A4GND7). The series is described as follows: acetylcholinesterase inhibition assay. The settings on record: based on IC50 values. Format: biochemical. As for the experimental part:
The in vitro AChE inhibitory activity of the test compounds was assessed according to the method of Perumalsamy et al.[42]. Third-instar Ae. aegypti larvae were used in all experiments. Whole bodies of 50 larvae were homogenized in 1 mL of ice-cold 0.1 M phosphate buffer (pH 8.0) using a glass tissue homogenizer. After filtering through cheesecloth, the homogenate was centrifuged at 1,000 × g at 4 °C for 5 min. The supernatant was used directly as the enzyme source for AChE. The protein levels were determined using the Bradford Protein Assay Kit (Bio-Rad Laboratories, Hercules, CA, USA) using BSA as the standard. The reaction mixture consisted of 50 µL of the crude enzyme preparation (4.3–4.8 µg protein equivalents), 150 µL of 0.1 M phosphate buffer, 20 µL of 3 mM DTNB in phosphate buffer (pH 7.0), and 1 µL of various concentrations of each test compound in ethanol. The reaction mixture was incubated at 30 °C for 5 min, and 20 µL of 32 mM ATChI was then added to the mixture. After incubation for 30 min, the reaction was terminated by adding 20 µL of 5 mM eserine salicylate. Absorbance was recorded at 412 nm using a VersaMax microplate reader (Molecular Devices, Sunnyvale, CA, USA). […] The results are expressed as the means ± standard errors (SEs) of triplicate samples from three independent experiments.
as §3

Where [4] appears, read: Table 7, structure-activity series, read-out: LC50 (mg/L) (95% CI).
[5] abbreviates: Table 7, structure-activity series.
[6] abbreviates: Table 6, structure-activity series, read-out: LC50 (mg/L) (95% CI).
Setting [7] is: Table 6, structure-activity series.

Sequence of acetylcholinesterase (AChE) from third-instar Ae. aegypti larvae (A4GND7 37-679): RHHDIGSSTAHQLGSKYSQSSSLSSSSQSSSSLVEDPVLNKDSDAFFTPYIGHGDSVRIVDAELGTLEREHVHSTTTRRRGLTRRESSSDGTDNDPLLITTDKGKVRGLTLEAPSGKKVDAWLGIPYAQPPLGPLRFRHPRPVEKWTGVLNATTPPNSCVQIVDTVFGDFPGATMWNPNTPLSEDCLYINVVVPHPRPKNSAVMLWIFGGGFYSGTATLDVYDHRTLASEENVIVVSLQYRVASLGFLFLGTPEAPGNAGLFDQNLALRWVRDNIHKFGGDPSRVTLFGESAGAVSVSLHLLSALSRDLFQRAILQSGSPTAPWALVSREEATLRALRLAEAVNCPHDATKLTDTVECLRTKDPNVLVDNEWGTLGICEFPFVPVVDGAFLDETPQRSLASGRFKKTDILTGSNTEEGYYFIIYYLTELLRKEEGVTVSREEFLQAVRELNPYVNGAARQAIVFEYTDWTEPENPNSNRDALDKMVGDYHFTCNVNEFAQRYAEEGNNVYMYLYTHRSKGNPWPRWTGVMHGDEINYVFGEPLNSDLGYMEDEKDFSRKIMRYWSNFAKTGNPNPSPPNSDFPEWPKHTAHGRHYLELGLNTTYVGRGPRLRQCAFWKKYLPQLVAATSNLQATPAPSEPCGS

Turning to `CC(C)=C1C[C@H]2C(=C(C)C(=O)C1=O)CC[C@]2(C)O` [9-oxoneoprocurcumenol], the LC50 with mosquito species larvae (terpenoids) is 5.81 µg/mL (≈ 23.4 µM).
Turning to `O=C(O)/C=C/c1ccc(O)c(O)c1` [Caffeic acid, caffeic acid], the figures for the LC50 in series [1] (setting [4]) and in series [2] (setting [6]) were 124 mg/L (≈ 691 µM) and 119 mg/L (≈ 662 µM), respectively. The results for the “LC90 (mg/L) (95% CI)” value in series [1] (setting [5]) and in series [2] (setting [7]) were 235.9 (204.2–296.1) mg/L and 245.6 (208.1–323.3) mg/L, respectively.
For `COP(=O)(OC)OC=C(Cl)Cl` [Dichlorvos, dichlorvos, reference compound], the LC50 in series [1] (read-out: LC50 (mg/L) (95% CI), Table 7, structure-activity series) turned out to be 0.158 mg/L (≈ 0.715 µM); in series [2] (read-out: LC50 (mg/L) (95% CI), Table 6, structure-activity series), 0.103 mg/L (≈ 0.466 µM). Moreover, the “LC90 (mg/L) (95% CI)” value in series [1] (setting [5]) is recorded as 0.660 (0.505–0.963) mg/L; in series [2] (setting [7]), 0.504 (0.380–0.761) mg/L. Besides, the “AChE inhibitory activity (in words)” value in series [3] is given as “did not differ significantly”.
Regarding `C=CCc1ccc(O)c(OC)c1` [Eugenol, eugenol], the LC50 in series [1] (setting [4]) is 75.8 mg/L (≈ 461 µM); in series [2] (setting [6]) it was 74.3 mg/L (≈ 453 µM). The “LC90 (mg/L) (95% CI)” value is given as 141.4 (126.3–166.2) mg/L in series [1] (setting [5]) and 143.3 (127.2–170.3) mg/L in series [2] (setting [7]).
Taken in the same sequence, the figures for `COc1ccccc1O` [Guaiacol, guaiacol] were 115 mg/L (≈ 930 µM), 108 mg/L (≈ 868 µM), 223.1 (188.3–292.1) mg/L and 205.6 (176.3–260.9) mg/L.
For `C=CCc1cc(OC)c(O)c(OC)c1` [Methoxyeugenol, methoxyeugenol], the LC50 turned out to be 9.15 mg/L (≈ 47.1 µM) in series [1] (setting [4]) and 8.4 mg/L (≈ 43.2 µM) in series [2] (setting [6]). Moreover, the “LC90 (mg/L) (95% CI)” value in series [1] (setting [5]) was 29.46 (22.83–44.88) mg/L; in series [2] (setting [7]) it was 25.52 (20.27–36.92) mg/L. Further, the “AChE inhibitory activity (in words)” value in series [3] was “lowest of all of the compounds that were examined”.
On to `C=CC[C@@]12C=C(OC)C(=O)C=C1O[C@H](c1ccc3c(c1)OCO3)[C@H]2C` [burchellin], for which, in the series with mosquito species larvae (neolignans), the LC50 is 15.5 µg/mL (≈ 45.5 µM).
With `N#C[C@@H](O[C@@H]1O[C@H](CO)[C@@H](O)[C@H](O)[C@H]1O)c1ccc(O)cc1` [dhurrin], the LC50 in the series on mosquito species larvae (cyanogenic glycosides) is 12 µg/mL (≈ 38.5 µM).
For the compound `CCOC(=O)C=Cc1ccc(OC)cc1` [ethyl p-methoxycinnamate], the LC50 with mosquito species larvae (phenylpropanoids) is 12.3 to 20.7 µg/mL.
Regarding `C=C[C@@H](O)C#CC#C[C@@H](O)/C=C\CCCCCCC` [falcarindiol], the LC50 in the series with mosquito species larvae (acetylenic alcohols) was 6.51 µg/mL (≈ 25 µM).
Regarding `C=C[C@H](O)C#CC#CC/C=C\CCCCCCC` [falcarinol], the LC50 in the series with mosquito species larvae (acetylenic alcohols) was 3.49 µg/mL (≈ 14.3 µM).
Consider `CC(C)=C1C[C@H]2C(=C(C)CC1=O)CC[C@]2(C)O` [neoprocurcumenol], for which the LC50 in the series with mosquito species larvae (terpenoids) is 13.69 µg/mL (≈ 58.4 µM).
On to `C=CCc1cccc(OC)c1O` [o-Eugenol, o-eugenol], for which the LC50 in series [1] (setting [4]) stood at 8.84 mg/L (≈ 53.8 µM); in series [2] (setting [6]), 7.46 mg/L (≈ 45.4 µM). The “LC90 (mg/L) (95% CI)” value in series [1] (setting [5]) is given as 24.01 (19.52–33.06) mg/L; in series [2] (setting [7]), 23.13 (18.42–33.49) mg/L. Further, the “AChE inhibitory activity (in words)” value in series [3] is “relatively weak AChE inhibitors”.
Take `CCCCCCCC/C=C\CCCCCCCC(=O)O` [oleic acid]: in the series with mosquito species larvae (flavonoids and fatty acids), the LC50 is 18.07 to 18.45 µg/mL.
Consider `Oc1ccc(-c2ccc(O)cc2)cc1` [p,p′-Biphenol, p,p′-biphenol], for which the LC50 in series [1] (setting [4]) worked out at 8.34 mg/L (≈ 44.8 µM); in series [2] (setting [6]) it was 7.52 mg/L (≈ 40.4 µM). Moreover, the entries for the “LC90 (mg/L) (95% CI)” value in series [1] (setting [5]) and in series [2] (setting [7]) were 27.76 (21.50–42.52) mg/L and 23.97 (18.97–35.16) mg/L, respectively. In series [3], the “AChE inhibitory activity (in words)” value is given as “relatively weak AChE inhibitors”.
Taken in the same sequence, the figures for `CCc1ccc(O)cc1` [p-Ethylphenol, p-ethylphenol] were 9.03 mg/L (≈ 73.9 µM), 8.3 mg/L (≈ 67.9 µM), 30.57 (23.29–48.51) mg/L, 25.86 (20.36–38.21) mg/L and “relatively weak AChE inhibitors”.
Turning to (−)-asarinin, in the series with mosquito species larvae (lignans), the LC50 was 10.49 to 16.49 µg/mL.
As to isoeugenol, the entries for the “LC90 (mg/L) (95% CI)” value in series [1] (setting [5]) and in series [2] (setting [7]) were 137.2 (124.3–161.2) mg/L and 138.1 (124.4–164.5) mg/L, respectively.

Values taken from paper PMC6344527, “Toxicity and possible mechanisms of action of honokiol from Magnolia denudata seeds against four mosquito species” (Scientific Reports, 2019).
